Measurements as given in PMC10420662, “Novel 7-Deazapurine Incorporating Isatin Hybrid Compounds as Protein Kinase Inhibitors: Design, Synthesis, In Silico Studies, and Antiproliferative Evaluation” (Molecules, 2023).
Each block holds one compound with its values, some of them ahead of it.

Columns and labels:
[1] = tested on: HepG2, MCF-7, MDA-MB-231, and HeLa cell lines; experiment: In vitro cytotoxicity MTT assay, all tested cell lines; format: cell-based, human
Experimental: (§1) Briefly, the cytotoxicity of the synthesized derivatives and the reference compounds was assessed via the MTT assay on four cancer cell lines. The cells were cultured in an RPMI11640 medium with 10% fetal bovine serum (FBS) and an antibiotic cocktail of […] streptomycin and 100 units/mL penicillin. Cancer cell lines were seeded independently in 96-well plates at a concentration of 1.0 × 10^4 cells/well at 37 °C, 5% CO2, and 100% relative humidity for 48 h. Afterwards, the incubated cells were treated with five concentrations of the synthesized derivatives for 24 h. Then, 20 µL MTT (5 mg/mL) was added and left for 4 h before adding 100 µL dimethyl sulfoxide (DMSO) to each well to solubilize the formed formazan.

HeLa = experiment: In vitro cytotoxicity MTT assay; format: cell-based; conditions: Homo sapiens, 24 h treatment, mean ± SD of three experiments
Experimental: as §1

HepG2 = experiment: In vitro cytotoxicity MTT assay; format: cell-based; conditions: Homo sapiens, 24 h treatment, mean ± SD of three experiments
Experimental: as §1

MDA-MB-231 = experiment: In vitro cytotoxicity MTT assay; format: cell-based; conditions: Homo sapiens, 24 h treatment, mean ± SD of three experiments
Experimental: as §1

MCF-7 = experiment: In vitro cytotoxicity MTT assay; format: cell-based; conditions: Homo sapiens, MCF7, 24 h treatment, mean ± SD of three experiments
Experimental: as §1

VEGFR2 = VEGFR2 (Homo sapiens, UniProt P35968); experiment: Kinase inhibition assay (ELISA kit)
Experimental: (§4) In vitro kinase inhibition assays were assessed against CDK2, EGFR, HER2, and VEGFR2, as described in [17, 27, 28]. […] Afterwards, the wells were washed. Then, 100 µL of the prepared biotin antibody was placed into each well and left for 1 h at room temperature. The wells were washed again before adding 100 µL of streptavidin solution and left for 45 min at room temperature. Then, 100 µL of TMB substrate reagent was added after a third washing step, and the plates were left for 30 min at room temperature. Finally, 50 µL of the stop solution was added to each well and the color intensity was measured at 450 nm.

BAX = BAX level assay (ELISA) in HepG2; format: cell-based, human; conditions: HepG2 cells, 24 h, vs untreated control
Experimental: (§2) The effect of compound 5 was also evaluated on caspase 3, caspase 9, BAX, and Bcl-2 protein levels in HepG2 (Table 6). […] Additionally, the level of Bcl-2 was reduced in the treated cells (0.18-fold) compared to untreated control cells.
(§3) Compound 5 effect on Caspase 3, caspase 9, BAX, and Bcl-2 levels was analyzed by following the method described in [17]. In 96-well plates, HepG2 cells were cultured and incubated for 24 h. The cells were then treated with compound 5 or 0.1% DMSO (v/v) for 24 h. Afterwards, caspase 3 and 9, BAX, and Bcl-2 levels were determined using ELISA assay kits KHO1091 (InvitrogenTM, Grand Island, NY, USA), EIA-4860 (DRU International Inc., Mountainside, NJ, USA), EIA-4487 (DRU International Inc., Mountainside, NJ, USA), and 99-0042 (InvitrogenTM, Grand Island, NY, USA), respectively, according to the manufacturers’ procedures.

CDK2 = CDK2 (Homo sapiens, UniProt P24941); experiment: Kinase inhibition assay (ELISA kit)
Experimental: as §4

HepG2 cells [2] = experiment: Apoptosis analysis (Annexin V-FITC/PI flow cytometry); format: cell-based, human
Experimental: Annexin V and propidium iodide (PI) reagent were used to detect the cell death in apoptosis by binding to phosphatidyl serine and DNA in plasma membrane, respectively. The cell death was examined by staining HepG2 cells with Annexin V and PI, and cellular fluorescence analysis was then performed using flow cytometry (Table 5). According to the results, compound 5 induced apoptosis by 160-fold in the late stage and by 20-fold in the early stage. […] As shown in the dot plot results, compound 5 caused exerted noticeable cell damage compared to untreated cells (Figure 4). Collectively, the results of cell cycle and apoptosis analysis confirmed the cytotoxicity effects of compound 5.
Effect of compound 5 on cell programmed cell death was analyzed using Annexin V-FITC cell apoptosis detection kit (K101-100) (BioVision Techology, Inc., Exon, PA, USA) by following the method described in [17, 30]. Briefly, in 6-well plates, HepG2 cells at a density of 2 × 10^5 were cultured and incubated for 24 h. The cultured cells were then treated with compound 5 for 24 h. Afterwards, the cells were trypsinized and gathered via centrifugation (5 min, 300× g), washed twice with PBS, and suspended in 0.1 mL of a 1X binding buffer. Then, the cells were double-stained with 5 µL Annexin V-FITC and 5 µL PI in the dark at room temperature for 15 min before they were examined using an Epics XL-MCL™ Flow Cytometer (Beckman Coulter, Apeldoorn, The Netherlands). The excitation wavelength was 488 nm while the emission wavelength was 530 nm. Finally, the data were analyzed using Flowing software (version 2.5.1, Turku Centre for Biotechnology, Turku, Finland).

EGFR = EGFR (Homo sapiens, UniProt P00533); experiment: Kinase inhibition assay (ELISA kit)
Experimental: as §4

caspase 3 = experiment: Caspase 3 level assay (ELISA) in HepG2; format: cell-based, human; conditions: HepG2 cells, 24 h, vs untreated control
Experimental: as §2, §3

HepG2 cells [3] = experiment: Cell cycle analysis (propidium iodide flow cytometry); format: cell-based, human; conditions: 6.11 μM, 24 h
Experimental: Cell cycle analysis can determine at which phase in the cell cycle apoptosis occurs. The cell cycle is four phases consisting of G1 (growth), S (DNA synthesis), G2 (growth and preparation for mitosis), and M (mitosis). Normal cell growth and proliferation are controlled by various checkpoints at these phases. Thus, HepG2 cells were treated with 6.11 μM of compound 5 to determine at which phase apoptosis occurs in the cell cycle for 24 h (Figure 3 and Table 4).
Effect of compound 5 on cell cycle distribution was analyzed using following the method described in [17, 29]. Briefly, to determine the influence of compound 5 on the cell cycle progression of HepG2 cells, flow cytometry analysis was performed using Propidium Iodide flow cytometry kit/BD (ab139418). First, the cells were cultured at a density of 2 × 10^5/well and incubated for 24 h. Afterwards, the cells were treated with compound 5 for 24 h. Then, the cells were fixed using 70% ethanol for 12 h at 4 °C. The cells were then washed with cold PBS, incubated with 100 µL RNase A for 30 min at 37 °C, and stained with Propidium Iodide (400 µL) in the dark at room temperature for 30 min. The stained cells were identified by running Epics XLMCL™ flow cytometer equipment (Beckman Coulter, Apeldoorn, The Netherlands), and the results were interpreted using Flowing software (version 2.5.1, Turku Centre for Biotechnology, Turku, Finland).

Bcl-2 = Bcl-2 level assay (ELISA) in HepG2; format: cell-based, human; conditions: HepG2 cells, 24 h, vs untreated control
Experimental: as §2, §3

caspase 9 = experiment: Caspase 9 level assay (ELISA) in HepG2; format: cell-based, human; conditions: HepG2 cells, 24 h, vs untreated control
Experimental: as §2, §3

HER2 = HER2 (Homo sapiens, UniProt P04626); experiment: Kinase inhibition assay (ELISA kit)
Sequence of HER2 (P04626 23-1255): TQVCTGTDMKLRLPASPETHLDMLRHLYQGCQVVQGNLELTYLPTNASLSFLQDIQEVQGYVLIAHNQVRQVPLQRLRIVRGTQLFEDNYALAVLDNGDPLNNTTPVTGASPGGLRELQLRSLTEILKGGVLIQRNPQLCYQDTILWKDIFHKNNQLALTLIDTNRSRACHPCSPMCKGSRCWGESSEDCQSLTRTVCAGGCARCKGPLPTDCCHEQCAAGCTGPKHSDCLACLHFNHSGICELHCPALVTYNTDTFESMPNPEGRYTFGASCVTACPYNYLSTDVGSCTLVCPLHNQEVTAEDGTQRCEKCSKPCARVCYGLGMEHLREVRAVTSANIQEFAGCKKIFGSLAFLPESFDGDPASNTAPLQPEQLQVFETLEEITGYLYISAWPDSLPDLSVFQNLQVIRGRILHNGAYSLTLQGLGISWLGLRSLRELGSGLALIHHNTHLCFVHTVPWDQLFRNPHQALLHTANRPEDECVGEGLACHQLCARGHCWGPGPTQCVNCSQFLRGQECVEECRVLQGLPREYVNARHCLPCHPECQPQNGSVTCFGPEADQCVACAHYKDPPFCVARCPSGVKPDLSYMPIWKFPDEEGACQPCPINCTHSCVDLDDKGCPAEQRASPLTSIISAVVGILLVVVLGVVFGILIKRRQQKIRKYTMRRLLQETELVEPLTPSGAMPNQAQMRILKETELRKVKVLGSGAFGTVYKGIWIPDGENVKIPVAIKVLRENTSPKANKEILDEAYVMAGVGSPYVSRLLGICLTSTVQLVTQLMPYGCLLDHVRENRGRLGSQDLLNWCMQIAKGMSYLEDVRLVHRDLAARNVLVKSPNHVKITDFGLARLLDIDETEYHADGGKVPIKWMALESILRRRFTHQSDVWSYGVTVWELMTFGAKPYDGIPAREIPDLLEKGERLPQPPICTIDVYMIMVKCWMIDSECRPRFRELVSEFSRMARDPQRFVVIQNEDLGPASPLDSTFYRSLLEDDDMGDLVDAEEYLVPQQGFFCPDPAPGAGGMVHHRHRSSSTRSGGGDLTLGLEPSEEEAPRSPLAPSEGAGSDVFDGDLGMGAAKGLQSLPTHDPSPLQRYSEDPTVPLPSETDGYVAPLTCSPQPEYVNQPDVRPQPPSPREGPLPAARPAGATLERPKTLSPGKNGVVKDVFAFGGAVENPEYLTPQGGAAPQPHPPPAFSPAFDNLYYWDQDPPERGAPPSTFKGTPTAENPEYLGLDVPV
Experimental: as §4

Sequence of VEGFR2 (P35968 20-1356): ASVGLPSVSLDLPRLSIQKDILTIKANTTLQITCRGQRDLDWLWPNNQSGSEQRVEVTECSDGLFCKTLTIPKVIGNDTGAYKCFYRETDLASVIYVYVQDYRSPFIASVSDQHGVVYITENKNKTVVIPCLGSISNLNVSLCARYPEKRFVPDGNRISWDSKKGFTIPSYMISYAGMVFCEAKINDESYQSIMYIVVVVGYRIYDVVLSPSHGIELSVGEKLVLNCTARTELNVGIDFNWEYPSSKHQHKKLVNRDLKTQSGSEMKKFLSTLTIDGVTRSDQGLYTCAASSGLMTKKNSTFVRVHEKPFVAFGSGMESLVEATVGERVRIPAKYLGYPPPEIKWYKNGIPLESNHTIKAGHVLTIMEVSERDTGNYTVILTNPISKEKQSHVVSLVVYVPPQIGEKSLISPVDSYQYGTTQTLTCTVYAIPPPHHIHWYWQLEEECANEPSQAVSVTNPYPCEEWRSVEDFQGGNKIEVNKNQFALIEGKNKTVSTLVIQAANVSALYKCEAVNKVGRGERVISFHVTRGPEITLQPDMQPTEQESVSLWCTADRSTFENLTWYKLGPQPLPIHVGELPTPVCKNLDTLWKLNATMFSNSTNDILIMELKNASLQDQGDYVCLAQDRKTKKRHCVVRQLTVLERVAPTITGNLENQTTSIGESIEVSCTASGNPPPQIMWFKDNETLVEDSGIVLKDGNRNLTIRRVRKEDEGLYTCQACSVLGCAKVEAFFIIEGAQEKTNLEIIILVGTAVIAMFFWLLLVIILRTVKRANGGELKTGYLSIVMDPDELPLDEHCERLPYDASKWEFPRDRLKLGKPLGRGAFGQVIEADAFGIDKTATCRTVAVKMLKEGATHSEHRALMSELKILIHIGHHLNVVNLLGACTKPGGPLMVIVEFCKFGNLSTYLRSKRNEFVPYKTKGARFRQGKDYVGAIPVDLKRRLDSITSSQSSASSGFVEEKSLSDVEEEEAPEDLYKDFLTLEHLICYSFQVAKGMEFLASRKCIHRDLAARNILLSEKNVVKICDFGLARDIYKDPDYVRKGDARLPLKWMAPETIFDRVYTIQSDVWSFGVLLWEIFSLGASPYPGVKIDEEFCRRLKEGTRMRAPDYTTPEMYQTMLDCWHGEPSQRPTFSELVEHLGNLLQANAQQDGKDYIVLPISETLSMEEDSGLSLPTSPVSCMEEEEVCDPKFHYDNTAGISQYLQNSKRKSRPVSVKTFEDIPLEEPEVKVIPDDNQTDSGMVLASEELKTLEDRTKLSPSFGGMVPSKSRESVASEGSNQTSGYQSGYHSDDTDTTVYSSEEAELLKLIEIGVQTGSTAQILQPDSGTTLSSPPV
Sequence of EGFR (P00533 25-1210): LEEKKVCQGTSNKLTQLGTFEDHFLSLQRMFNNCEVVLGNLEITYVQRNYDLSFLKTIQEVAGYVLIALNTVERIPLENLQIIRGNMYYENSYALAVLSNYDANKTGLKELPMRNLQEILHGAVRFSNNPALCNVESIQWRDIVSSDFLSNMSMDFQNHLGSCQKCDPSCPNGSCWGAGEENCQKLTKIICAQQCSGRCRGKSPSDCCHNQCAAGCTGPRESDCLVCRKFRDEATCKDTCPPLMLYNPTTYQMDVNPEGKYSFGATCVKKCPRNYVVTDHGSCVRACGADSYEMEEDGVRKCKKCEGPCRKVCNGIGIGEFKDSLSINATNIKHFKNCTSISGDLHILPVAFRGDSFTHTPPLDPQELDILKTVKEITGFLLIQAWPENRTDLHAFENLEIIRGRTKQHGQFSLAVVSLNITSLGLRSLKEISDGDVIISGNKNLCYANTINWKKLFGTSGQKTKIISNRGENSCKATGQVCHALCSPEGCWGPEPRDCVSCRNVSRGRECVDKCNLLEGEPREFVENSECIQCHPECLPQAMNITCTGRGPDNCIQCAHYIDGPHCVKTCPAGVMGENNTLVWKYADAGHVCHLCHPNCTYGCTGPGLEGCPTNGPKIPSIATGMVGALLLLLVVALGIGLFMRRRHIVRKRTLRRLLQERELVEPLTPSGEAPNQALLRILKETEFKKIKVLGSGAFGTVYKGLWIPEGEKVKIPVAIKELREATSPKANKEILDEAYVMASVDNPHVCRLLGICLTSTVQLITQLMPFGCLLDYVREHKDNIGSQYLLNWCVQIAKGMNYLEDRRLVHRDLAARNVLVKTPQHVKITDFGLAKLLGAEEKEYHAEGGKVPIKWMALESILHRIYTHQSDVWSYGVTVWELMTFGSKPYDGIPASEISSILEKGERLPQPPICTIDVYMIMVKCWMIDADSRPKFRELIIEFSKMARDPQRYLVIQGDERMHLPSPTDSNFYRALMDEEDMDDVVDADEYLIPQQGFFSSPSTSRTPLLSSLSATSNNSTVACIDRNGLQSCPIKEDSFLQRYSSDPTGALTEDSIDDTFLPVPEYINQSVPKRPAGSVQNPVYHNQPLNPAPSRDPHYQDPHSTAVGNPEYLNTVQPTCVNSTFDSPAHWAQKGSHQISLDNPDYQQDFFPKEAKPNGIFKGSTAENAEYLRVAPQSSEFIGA

Compound: O=C1Nc2ccccc2C1=NNC(=O)c1ccc(Nc2ncnc3[nH]ccc23)cc1 [Compound 1, 4-((7H-pyrrolo[2,3-d]pyrimidin-4-yl)amino)-N′-(2-oxoindolin-3-ylidene)benzohydrazide]
- Antiproliferative activity (in words) [1]: moderate antiproliferative activity
- IC50 (HeLa): 12.4 ± 0.9 µM
- IC50 (HepG2): 25.8 ± 1.9 µM
- IC50 (MDA-MB-231): 16 ± 1.3 µM
- IC50 (MCF-7): 18.5 ± 1.5 µM

Compound: O=C1Nc2ccc(Cl)cc2C1=NNC(=O)c1ccc(Nc2ncnc3[nH]ccc23)cc1 [Compound 2, 4-((7H-pyrrolo[2,3-d]pyrimidin-4-yl)amino)-N′-(5-chloro-2-oxoindolin-3-ylidene)benzohydrazide]
- IC50 (HeLa): 45.4 ± 2.6 µM
- IC50 (HepG2): 67.4 ± 3.6 µM
- IC50 (MDA-MB-231): 51.3 ± 2.9 µM
- IC50 (MCF-7): 72.5 ± 3.7 µM

Compound: O=C1Nc2ccc(F)cc2C1=NNC(=O)c1ccc(Nc2ncnc3[nH]ccc23)cc1 [Compound 3, 4-((7H-pyrrolo[2,3-d]pyrimidin-4-yl)amino)-N′-(5-fluoro-2-oxoindolin-3-ylidene)benzohydrazide]
- IC50 (HeLa): 39.1 ± 2.4 µM
- IC50 (HepG2): 59.3 ± 3.3 µM
- IC50 (MDA-MB-231): 42.9 ± 2.6 µM
- IC50 (MCF-7): 63.7 ± 3.4 µM

Compound: Cc1ccc2c(c1)C(=NNC(=O)c1ccc(Nc3ncnc4[nH]ccc34)cc1)C(=O)N2 [Compound 4, 4-((7H-pyrrolo[2,3-d]pyrimidin-4-yl)amino)-N′-(5-methyl-2-oxoindolin-3-ylidene)benzohydrazide]
- IC50 (HeLa): 75.4 ± 3.5 µM
- IC50 (HepG2): 92.7 ± 4.5 µM
- IC50 (MDA-MB-231): 73.2 ± 3.3 µM
- IC50 (MCF-7): 80.2 ± 4.2 µM

- IC50 (VEGFR2): 0.178 ± 0.009 µM
- IC50 (CDK2): 0.131 ± 0.007 µM
- IC50 (EGFR): 0.103 ± 0.006 µM
- IC50 (HER2): 0.081 ± 0.002 µM
Compound: COc1ccc2c(c1)C(=NNC(=O)c1ccc(Nc3ncnc4[nH]ccc34)cc1)C(=O)N2 [Compound 5, 4-((7H-pyrrolo[2,3-d]pyrimidin-4-yl)amino)-N′-(5-methoxy-2-oxoindolin-3-ylidene)benzohydrazide]
- Gene Expression Fold Change Bax (BAX): 6.13 fold
- Gene Expression Fold Change Bax (BAX; listed as compound 5): 6 fold
- Apoptosis Early (HepG2 cells [2]; 24 h, Annexin V-FITC/PI): 13.28%
- Apoptosis Late (HepG2 cells [2]; 24 h, Annexin V-FITC/PI): 21.16%
- Necrosis (HepG2 cells [2]; 24 h, Annexin V-FITC/PI): 5.28%
- Increase in necrotic cell death (HepG2 cells [2]; compared to untreated cells): 4.75 fold
- Induction of apoptosis in the early stage (HepG2 cells [2]; compared to untreated cells): 20 fold
- Induction of apoptosis in the late stage (HepG2 cells [2]; compared to untreated cells): 160 fold
- Gene Expression Fold Change Caspase 3 (caspase 3): 7.984 fold
- Gene Expression Fold Change Caspase 3 (caspase 3; listed as compound 5): 8 fold
- Cell Cycle Distribution %G0-G1 (HepG2 cells [3]): 49.02%
- Cell Cycle Distribution %G2/M (HepG2 cells [3]): 6.05%
- Cell Cycle Distribution %Pre-G1 (HepG2 cells [3]): 39.72%
- Cell Cycle Distribution %S (HepG2 cells [3]): 44.93%
- Cell cycle arrest phase (HepG2 cells [3]): arrested the cell cycle of HepG2 cells at G1 and S phases
- Gene Expression Fold Change Bcl-2 (Bcl-2): 0.184 fold
- Gene Expression Fold Change Bcl-2 (Bcl-2; listed as compound 5): 0.18 fold
- IC50 (HeLa): 1.98 ± 0.1 µM
- IC50 (HepG2): 6.11 ± 0.4 µM
- IC50 (MDA-MB-231): 2.48 ± 0.1 µM
- IC50 (MCF-7): 5.93 ± 0.3 µM
- Gene Expression Fold Change Caspase 9 (caspase 9): 4.853 fold
- Gene Expression Fold Change Caspase 9 (caspase 9; listed as compound 5): 5 fold

Compound: COc1cccc2c1C(=O)c1c(O)c3c(c(O)c1C2=O)C[C@@](O)(C(=O)CO)C[C@@H]3O[C@H]1C[C@H](N)[C@H](O)[C@H](C)O1 [DOXORUBICIN, doxorubicin, reference compound]
- IC50 (HepG2): 4.5 ± 0.2 µM

Compound: CCN(CC)CCNC(=O)c1c(C)[nH]c(/C=C2\C(=O)Nc3ccc(F)cc32)c1C [Sunitinib, reference compound]
- IC50 (HeLa): 7.48 ± 0.6 µM
- IC50 (HepG2): 6.82 ± 0.5 µM
- IC50 (MDA-MB-231): 8.41 ± 0.7 µM
- IC50 (MCF-7): 5.19 ± 0.4 µM
